Columns and labels:
[1] = daily intake of NMN for 90 days, long-term safety; assay type: in vivo; details: 500 mg daily for 90 days
[2] = PQQ supplementation over an 8-week period; assay type: in vivo; details: 8-week period of supplementation
From the text: In another embodiment, PQQ supplementation promotes mitochondrial biogenesis and boosts oxidative metabolism, resulting in increased energy production. […] PQQ acts as a potent antioxidant, reducing oxidative stress by neutralizing harmful free radicals and lowering inflammation. By protecting neurons from oxidative damage, PQQ supplementation contributes to improved cognitive performance, including enhanced memory, attention, and mental clarity.

Structure (SMILES)	impact on blood sugar, liver function, or kidney function [1]	cognitive function [2]	oxidative stress [2]
NC(=O)c1ccc[n+]([C@@H]2O[C@H](COP(=O)([O-])O)[C@@H](O)[C@H]2O)c1 [NMN, nicotinamide mononucleotide]	no impact on blood sugar, liver function, or kidney function	–	–
O=C(O)c1cc(C(=O)O)c2c(n1)C(=O)C(=O)c1cc(C(=O)O)[nH]c1-2 [PQQ, pyrroloquinoline quinone]	–	enhances cognitive function	reduces oxidative stress
